This test deals with P388 leukemia ip, CD2F1 mice, survival T/C. Nature of the test: NCI In Vivo Anticancer Drug Screen. Data for tumor model P388 Leukemia (intraperitoneal) in CD2F1 (CDF1) mice. Conditions: endpoint: median survival time, higher = longer survival. The gist of the method:
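Mice carrying the transplanted tumor received test compound or vehicle. Survival was recorded in each group, and the value is the treated-group measurement divided by that of the vehicle-treated control group.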

Setting [1] is: dose: 16.0 mg/kg/injection, schedule: Q01DX009 (ip), vehicle: Klucel (hydroxypropylcellulose) (HPC).
Where [2] appears, read: dose: 50.0 mg/kg/injection, schedule: Q01DX005 (ip), vehicle: saline.
Setting [3] is: dose: 100.0 mg/kg/injection, schedule: Q01DX005 (ip), vehicle: saline.
The mark [4] stands for this setting: dose: 200.0 mg/kg/injection, schedule: Q01DX005 (ip), vehicle: saline.
Setting [5] is: dose: 60.0 mg/kg/injection, schedule: Q01DX005 (ip), vehicle: saline with Tween-80.
[6] abbreviates: dose: 120.0 mg/kg/injection, schedule: Q01DX005 (ip), vehicle: saline with Tween-80.
Where [7] appears, read: dose: 240.0 mg/kg/injection, schedule: Q01DX005 (ip), vehicle: saline with Tween-80.
The mark [8] stands for this setting: dose: 50.0 mg/kg/injection, schedule: Q01DX005 (ip), vehicle: saline with Tween-80.
The mark [9] stands for this setting: dose: 100.0 mg/kg/injection, schedule: Q01DX005 (ip), vehicle: saline with Tween-80.
[10] abbreviates: dose: 50.0 mg/kg/injection, schedule: Q01DX005 (ip), vehicle: Klucel (hydroxypropylcellulose) (HPC).
The mark [11] stands for this setting: dose: 100.0 mg/kg/injection, schedule: Q01DX005 (ip), vehicle: Klucel (hydroxypropylcellulose) (HPC).
Setting [12] is: dose: 200.0 mg/kg/injection, schedule: Q01DX005 (ip), vehicle: Klucel (hydroxypropylcellulose) (HPC).
[13] abbreviates: dose: 12.5 mg/kg/injection, schedule: Q01DX009 (ip), vehicle: saline with Tween-80.
[14] abbreviates: dose: 25.0 mg/kg/injection, schedule: Q01DX009 (ip), vehicle: saline with Tween-80.
Where [15] appears, read: dose: 50.0 mg/kg/injection, schedule: Q01DX009 (ip), vehicle: saline with Tween-80.
The mark [16] stands for this setting: dose: 50.0 mg/kg/injection, schedule: Q01DX009 (ip), vehicle: saline.
Where [17] appears, read: dose: 100.0 mg/kg/injection, schedule: Q01DX009 (ip), vehicle: saline.
Where [18] appears, read: dose: 200.0 mg/kg/injection, schedule: Q01DX009 (ip), vehicle: saline.
Setting [19] is: dose: 50.0 mg/kg/injection, schedule: Q01DX009 (ip), vehicle: Klucel (hydroxypropylcellulose) (HPC).

Values joined by “and” are separate entries in the source; they are usually repeats but may differ in a detail not shown here. Equal entries are not always repeated. Toxic doses and inconclusive results are not listed.

For the compound `CCC[CH2][Pb]([Cl])([CH2]CCC)[CH2]CCC`, the T/C (dose: 1.25 mg/kg/injection, schedule: Q01DX009 (ip), vehicle: saline with Tween-80) was 99 % of control; the T/C (dose: 2.5 mg/kg/injection, schedule: Q01DX009 (ip), vehicle: saline with Tween-80) was 99 % of control; the T/C (dose: 5.0 mg/kg/injection, schedule: Q01DX009 (ip), vehicle: saline with Tween-80) is 107 % of control; the T/C (dose: 10.0 mg/kg/injection, schedule: Q01DX009 (ip), vehicle: saline with Tween-80) is 103 % of control.

Turning to `C=C1CCC(Br)C2(C)CCC(C(C)(C)O)CC12` (centres undefined), the T/C is 100 % of control (dose: 2.0 mg/kg/injection, schedule: Q01DX009 (ip), vehicle: Klucel (hydroxypropylcellulose) (HPC)); 100 % of control (dose: 4.0 mg/kg/injection, schedule: Q01DX009 (ip), vehicle: Klucel (hydroxypropylcellulose) (HPC)); 98 % of control (dose: 8.0 mg/kg/injection, schedule: Q01DX009 (ip), vehicle: Klucel (hydroxypropylcellulose) (HPC)); 99 % of control under setting [1].

Regarding `CCCN(CCC)C(=O)CN(C=O)c1ncc([N+](=O)[O-])s1`, the T/C runs as follows: (dose: 25.0 mg/kg/injection, schedule: Q01DX001 (ip), vehicle: saline) 104 % of control; (dose: 50.0 mg/kg/injection, schedule: Q01DX001 (ip), vehicle: saline) 108 % of control; (dose: 100.0 mg/kg/injection, schedule: Q01DX001 (ip), vehicle: saline) 107 % of control.

Take `OCCOCCSCCOCCO`: the T/C was 100 % of control under setting [2], 100 % of control under setting [3] and 102 % of control under setting [4].

In the case of `CCOC(=O)c1c(Cl)c(Cc2ccccc2)c(Cl)n2c1nc1ccccc12`, the T/C was 99 % of control under setting [5], 93 % of control under setting [6] and 89 % of control under setting [7].

In the case of `COc1ccc(C(=O)CCc2cccc(NC(=O)CCCl)c2)cc1`, the T/C under setting [5] was 105 % of control, the T/C under setting [6] is 94 % of control and the T/C under setting [7] is 92 % of control.

As for `CNC(=O)N(N=O)c1[nH]c(=O)ncc1Cl`, the T/C reads like this: under setting [5], 116 % of control; under setting [6], 116 % of control.

For `O=NN1CCCNC1=O`, the T/C is 118 % of control (dose: 12.5 mg/kg/injection, schedule: Q04DX003 (ip), vehicle: saline); 163 % of control (dose: 20.0 mg/kg/injection, schedule: Q01DX009 (ip), vehicle: saline with Tween-80); 163 % of control (dose: 37.5 mg/kg/injection, schedule: Q01DX009 (ip), vehicle: saline with Tween-80); 231 % of control (dose: 40.0 mg/kg/injection, schedule: Q01DX009 (ip), vehicle: saline with Tween-80); 172 % of control (dose: 50.0 mg/kg/injection, schedule: Q04DX003 (ip), vehicle: saline); 179 % of control (dose: 66.0 mg/kg/injection, schedule: Q04DX003 (ip), vehicle: saline). In addition, the T/C was 86 % of control (dose: 75.0 mg/kg/injection, schedule: Q01DX009 (ip), vehicle: saline with Tween-80); 191 % of control and 216 % of control (dose: 100.0 mg/kg/injection, schedule: Q04DX003 (ip), vehicle: saline).

`Clc1ccc(C2=NON(c3ccccn3)C3C=CC=CN23)cc1` (centres undefined): the T/C is 97 % of control under setting [8]; 93 % of control under setting [9]; 93 % of control (dose: 200.0 mg/kg/injection, schedule: Q01DX005 (ip), vehicle: saline with Tween-80).

Regarding `CCOC(=O)c1c(NC(=O)c2ccccc2)sc2c(=O)oc(-c3ccccc3)nc12`, the T/C under setting [10] is 97 % of control, the T/C under setting [11] is 90 % of control and the T/C under setting [12] was 90 % of control.

In the case of `Nc1ccc(/C=C/c2cccc3cccnc23)cc1`, the T/C under setting [13] is 96 % of control, the T/C under setting [14] was 96 % of control and the T/C under setting [15] was 93 % of control.

For `Cc1cc2nc(CN(CCO)CCO)[nH]c2cc1C`, the T/C is 100 % of control under setting [2], 98 % of control under setting [3] and 98 % of control under setting [4].

On to `O=c1[nH]c(CNCCO)nc2sc3c(c12)CCCC3`, for which the T/C reads like this: under setting [15], 100 % of control; (dose: 100.0 mg/kg/injection, schedule: Q01DX009 (ip), vehicle: saline with Tween-80) 105 % of control; (dose: 200.0 mg/kg/injection, schedule: Q01DX009 (ip), vehicle: saline with Tween-80) 96 % of control.

In the case of `CNS(=O)Nc1ccnc(=O)[nH]1` (centres undefined), the T/C is 99 % of control (dose: 50.0 mg/kg/injection, schedule: Q04DX002 (ip), vehicle: Klucel (hydroxypropylcellulose) (HPC)); 100 % of control (dose: 100.0 mg/kg/injection, schedule: Q04DX002 (ip), vehicle: Klucel (hydroxypropylcellulose) (HPC)); 106 % of control (dose: 200.0 mg/kg/injection, schedule: Q04DX002 (ip), vehicle: Klucel (hydroxypropylcellulose) (HPC)); 100 % of control (dose: 400.0 mg/kg/injection, schedule: Q04DX002 (ip), vehicle: Klucel (hydroxypropylcellulose) (HPC)).

Take `COC(=O)c1cc(=O)nc(NN)s1`: the T/C runs as follows: under setting [8], 92 % of control; under setting [9], 90 % of control.

As to `COC(=O)N[Si](C)(C)C`, the T/C was 93 % of control under setting [16], 98 % of control under setting [17] and 100 % of control under setting [18].

For `CC(=NCCCCN=C(C)c1cc(C)cc(Br)c1O)c1cc(C)cc(Br)c1O`, the T/C runs as follows: (dose: 25.0 mg/kg/injection, schedule: Q01DX005 (ip), vehicle: Klucel (hydroxypropylcellulose) (HPC)) 100 % of control; under setting [10], 96 % of control; under setting [11], 95 % of control; under setting [12], 98 % of control.

Turning to `Cc1cc2nc(N(C)C)cc(N(C)C)c2cc1C`, the T/C (dose: 12.5 mg/kg/injection, schedule: Q01DX009 (ip), vehicle: Klucel (hydroxypropylcellulose) (HPC)) is 115 % of control; the T/C (dose: 25.0 mg/kg/injection, schedule: Q01DX009 (ip), vehicle: Klucel (hydroxypropylcellulose) (HPC)) is 109 % of control; the T/C under setting [19] is 100 % of control and 105 % of control.

Turning to `CS(=O)(=O)OC[C@@H](O)[C@@H](O)COS(C)(=O)=O`, the T/C is 112 % of control under setting [16]; 110 % of control (dose: 100.0 mg/kg/injection, schedule: Q01DX009 (ip), vehicle: saline sonified); 99 % of control under setting [17]; 100 % of control (dose: 200.0 mg/kg/injection, schedule: Q01DX009 (ip), vehicle: saline sonified); 99 % of control under setting [18]; 100 % of control (dose: 400.0 mg/kg/injection, schedule: Q01DX009 (ip), vehicle: saline sonified).

With `c1cc2cc(-c3ccc4oc(C5=NCCN5)cc4c3)[nH]c2cc1C1=NCCN1`, the T/C reads like this: under setting [10], 163 % of control; under setting [11], 160 % of control; under setting [12], 193 % of control.

For `Cc1cc(=O)[nH]c2cc(NN)ccc12`, the T/C is, setting by setting: under setting [5], 96 % of control; under setting [6], 92 % of control; under setting [7], 95 % of control.

As for `C=CCn1c(=O)n(C)c(=O)c2[nH]c(Cl)nc21`, the T/C was 108 % of control under setting [1]; 103 % of control (dose: 32.0 mg/kg/injection, schedule: Q01DX009 (ip), vehicle: Klucel (hydroxypropylcellulose) (HPC)); 110 % of control under setting [19]; 104 % of control (dose: 64.0 mg/kg/injection, schedule: Q01DX009 (ip), vehicle: Klucel (hydroxypropylcellulose) (HPC)); 112 % of control (dose: 100.0 mg/kg/injection, schedule: Q01DX009 (ip), vehicle: Klucel (hydroxypropylcellulose) (HPC)).

`O=C(O)c1ccccc1N=Nc1ccc(N(CCCl)CCCl)cc1`: the T/C is, setting by setting: (dose: 3.13 mg/kg/injection, schedule: Q04DX003 (ip), vehicle: Klucel (hydroxypropylcellulose) (HPC)) 122 % of control; (dose: 6.25 mg/kg/injection, schedule: Q01DX009 (ip), vehicle: saline with Tween-80) 166 % of control; under setting [13], 152 % of control and 154 % of control; (dose: 12.5 mg/kg/injection, schedule: Q04DX003 (ip), vehicle: Klucel (hydroxypropylcellulose) (HPC)) 177 % of control; under setting [14], 162 % of control and 166 % of control; under setting [15], 99 % of control.

The record behind these values is PubChem BioAssay AID330 (DTP/NCI, 2004).
